Data taken from patent US12685775B2, “Oligonucleotides with nucleoside analogs” (Sirnaomics, Inc., priority 2019, dated 2026).
pIC50: −log10 of the molar value. “Also recorded” adds a separate entry of the source. Like-named read-outs stand apart in the source and are kept apart here.

Experiments:
Assay type in all cases: cell-based
[1] = tested on: MiaPaca-2; experiment: MiaPaca-2 cell viability, 96 h exposure (Examples 8 and 9); settings: for maximal inhibition of cell viability: 96 h
Procedure: (§1) Pancreatic cancer BxPC3 cells were seeded at 1000 cells/ml and grown as monolayers in 384 well plates. The cells were transfected with the siRNAs indicated against CHK1 or Rad17 using Lipofectamine (ThermoFisher) or were treated with gemcitabine at the concentrations indicated on the X axis. After a 96 h incubation at 37° C. with 5% CO2, cell viability was determined using Cell Titer Glo (Perkin Elmer) by monitoring the luminescence signal produced by the reagent in a Perkin Elmer Envision plate reader equipped with Ultrasensitive luminescence detection optics. From the figure we can see that gemcitabine (GEM) produces a dose-dependent inhibition of cell viability with an IC50 of ~6 nM and maximal efficacy of >80% cell killing. A 25mer blunt ended siRNA against RAD17 produced a dose dependent inhibition in cell viability with a maximum efficacy at only 60% reduction in cell viability and an IC50 of ~5 nM. […] The IC50 for the latter siRNA was similar to that for the Azorsa sequence (~0.3 nM).
Using gemcitabine or the same unmodified siRNAs and exposure time (96 h) as used against BxPC3 cells (FIG. 1), we studied the effect on another pancreatic cancer cell line—MiaPaca-2.

[2] = tested on: BxPC3 cells; experiment: BxPC3 cell viability 96 h after transfection/treatment, Cell Titer Glo (Examples 2 and 3); settings: for pIC50: read-out: IC50, inhibition of cell viability; for inhibition in cell viability at 0.1 nM: BxPC3, 0.1 nM, GEM-modified siRNAs
Procedure: as §1
SiRNAs were synthesized with gemcitabine nucleotide amidites added at the 3′ end of each of the Sense strands for the siRNA sequences indicated. SiRNAs were transfected into the cells and incubated as detailed in FIG. 1. Maximal efficacy of all sequences was now improved to >95% inhibition of cell viability at concentrations above 10 nM. […] The gemcitabine nucleotides was examined to see if it could replace the Cytidine nucleotides within the siRNA sequence. […] FIGS. 12a-12d show the effect of adding 2 gemcitabine nucleotides at the 3′ end of the Sense strand of each siRNA on potency and efficacy.

[3] = tested on: BxPC3 pancreatic cancer cell; experiment: cells; settings: for pIC50: BxPC3, 120 h exposure, read-out: IC50, cell viability
Procedure: The siRNA sequences shown in Table 2 were tested for efficacy and potency against BxPC3 pancreatic cancer cell viability after 120 h exposure.

[4] = tested on: BxPC3 cells; experiment: BxPC3 cell viability after 120 h exposure, Cell Titer Glo (Example 4, polyGEM constructs)
Procedure: BxPC3 cells seeded in 384 well plates at 1000 cells/well were transfected with siRNA constructs or exposed to gemcitabine at the concentrations indicated in the figure. The samples tested were gemcitabine alone (GEM), the unmodified 19mer siRNA against CHK1 (CHK-AZ) and the same sequences of the siRNA but with either 2 (poly-2), 4 (poly-4) or 6 (poly-6) gemcitabine nucleotides added at the 3′ end of the Sense strand prior to annealing with the same antisense strand. After 120 h exposure to the various agents, the cell viability was determined by addition of Cell Titer Glo (PE), plates were shaken for 10-20 mins and then luminescence signal correlating with cell viability was determined in a PE Envision plate reader.
It was reasoned that, since such an improvement in efficacy against pancreatic cancer cell viability was obtained when adding 2 GEM nucleotides onto the SS of an siRNA, then adding additional GEMs would further improve the efficacy and/or potency of the siRNAs. To this end the unmodified 19mer siRNA (CHK-AZ) was compared with the same sequence where 2Gems were added at the 3′ end of the SS (poly-2), 4GEMs were added (poly-4) or 6 GEMs were added (poly-6). These sequences were compared with gemcitabine alone (GEM). The experiment was performed by transfection of the siRNAs in BxPC3 cells as for FIG. 1 but the exposure time prior to measurement of cell viability was 120 h. […]

[5] = tested on: BxPC3 cells; experiment: BxPC3 cell viability after 72 hrs treatment, CTG2 reagent (Example 1); settings: Homo sapiens, BXPC-3, BxPC3, 72 h
Procedure: BxPC3 cells were seeded in two 384-well plates at 500 cells/well. On the next day cells were treated with various concentrations of CID2A, CID2S, CID4 siRNAs (formulated with Lipofectamine RNAiMAX) or gemcitabine (0.1-1000 nM) for 72 hrs. After incubation at 37° C. for 72 hrs, the number of viable cells was assessed using CTG2 reagent. Non-treated cells were set as 100%.

[6] = tested on: CFPAC cells; experiment: Screen of siRNA sequences designed against CHK1: % viable cells 72 h after transfection, CFPAC
Procedure: (§2) The percentage of viable cells 72 h after transfection of the siRNA sequences into cells in culture is shown (top panel—BxPC3 cells; lower panel—CFPAC cells). 100% viability is defined as that in the presence of a NON-silencing control siRNA (NS). CHK1_AZ (AZ) was tested as a comparator. CD=Cell Death siRNAs—known to produce maximal killing of many cell types when transfected into cells.

[7] = tested on: CHK1; experiment: siRNA validation of target silencing (qRTPCR); settings: previous studies
Procedure: These experiments were performed using the siRNAs shown below. The degree of gene target silencing was measured in cells transfected with the siRNAs at (50 nM) and the degree of gene silencing was measured using qRTPCR (using Beta-actin as a control housekeeping gene for normalization of the data).

[8] = tested on: BxPC3 cells; experiment: Screen of siRNA sequences designed against CHK1: % viable cells 72 h after transfection, BxPC3
Procedure: as §2

Compound: Nc1ccn([C@@H]2O[C@H](CO)[C@@H](O)C2(F)F)c(=O)n1 [gemcitabine, 2′,2′-difluoro 2′-deoxycytidine, reference compound]
- inhibition at 0.1 µM ([1]; Homo sapiens, MIA PaCa-2, 100 nM, read-out: maximal inhibition at 100 nM): 90%
- maximal efficacy (reduction/inhibition of cell viability, cell killing) ([2]; BxPC3, 96 h): > 80%
- pIC50 ([2]; Homo sapiens, BXPC-3, BxPC3, 96 h): ~8.22
- pIC50 ([3]; Homo sapiens, BXPC-3): ~8.30
- maximal efficacy, inhibition of cell viability ([3]; human, 120 h, 100 nM): ~ 85%
- reduction in cell viability at concentrations above 50 nM ([4]; BxPC3, 120 h, >50 nM): 100%
- pIC50 ([4]; Homo sapiens, BXPC-3, BxPC3, 120 h exposure): 8.52
- viability at 0.05 µM ([5]; 50 nM): 26%
- pIC50 ([5]; no Lipofectamine, read-out: IC50, reduction in cell viability): ~8.15

Compound: CHK_4: siRNA designed against CHK1, sense strand CCTGTGGAATAGTACTTACTGCAAT (SEQ ID NO: 9); same sequence as SLP49-1 (antisense strand not cited, further chemistry not given here)
- effect on CFPAC cell viability [6]: very pronounced effect on cell viability
- silencing of CHK1 gene [7]: better silencing than the Azorsa sequence
- potency on BxPC3 cell viability [8]: most potent effect; also recorded: greater potency than CHK-AZ
- % viable BxPC3 cells at 72 h ([8]; 100% = non-silencing control siRNA): 24%
- potency on BxPC3 cell viability ([8]; listed as #4): #4 sequence CCTGTGGAATAGTACTTACTGCAAT (SEQ ID NO: 9) seemed to be the best.

Compound: SLP49-1: Unmodified 25mer blunt ended CHK1 siRNA, sense CCUGUGGAAUAGUACUUACUGCAAU (SEQ ID NO: 18) (antisense AUUGCAGUAAGUACUAUUCCACAGG; unmodified RNA)
- maximal inhibition of cell viability ([1]; listed as 25mer blunt ended siRNA designed against CHK1): ~ 80%
- maximal inhibition of cell viability ([1]; listed as Chk1_de): 80%
- inhibition of cell viability at 100 nM ([2]; BxPC3, 96 h, 100 nM): ~ 90%
- pIC50 ([2]; BxPC3, 96 h): ~9.52
- Efficacy at 100 nM ([3]; BxPC3, 120 h, 100 nM): 90%
- pIC50 [3]: 9.60

Compound: SLP49-2: 25mer CHK1 siRNA with 2 GEMs attached at the 3′ end of the Sense Strand (SEQ ID NO: 19) (sense CCUGUGGAAUAGUACUUACUGCAAUCC; antisense AUUGCAGUAAGUACUAUUCCACAGG; 25mer siRNA, two gemcitabine nucleotides added at sense strand 3' end, further chemistry not given here)
- maximal inhibition at 10 nM ([1]; 10 nM): ~ 100%
- inhibition in cell viability at 0.1 nM [2]: 31%
- efficacy (inhibition of cell viability / cell killing) at 30 nM [3]: ~ 100%

Compound: SLP49-3: Unlabeled 25mer blunt ended siRNA against RAD17, sense CCAACAAUUAUGAUGAAAUUUCUUA (SEQ ID NO: 23) (antisense UAAGAAAUUUCAUCAUAAUUGUUGG; further chemistry not given here)
- maximal inhibition of cell viability ([1]; listed as RAD17 siRNA): ~ 30%
- maximal inhibition of cell viability ([1]; listed as unmodified 25mer siRNA targeting RAD17): ~ 25%
- maximal efficacy (reduction/inhibition of cell viability, cell killing) ([2]; BxPC3, 96 h): 60%
- maximal efficacy (reduction/inhibition of cell viability, cell killing) ([2]; BxPC3, 96 h, listed as RAD17 siRNA): ~ 60%
- pIC50 ([2]; BxPC3, 96 h): ~8.30
- maximal efficacy, inhibition of cell viability [3]: 60%
- pIC50 [3]: ~8.40

Compound: SLP49-4: RAD17 25mer siRNA with 2 additional GEMs attached at the 3′ end of the SS (SEQ ID NO: 24) (sense CCAACAAUUAUGAUGAAAUUUCUUACC; antisense UAAGAAAUUUCAUCAUAAUUGUUGG; 25mer siRNA, two gemcitabine nucleotides added at sense strand 3' end, further chemistry not given here)
- inhibition at 30 nM ([1]; 30 nM): 93%
- inhibition in cell viability at 0.1 nM [2]: no effect on cell viability
- efficacy (inhibition of cell viability / cell killing) at 30 nM [3]: 100%
- pIC50 [3]: ~8.40

Compound: SLP49-5: CHK1 siRNA, SS shortened by first 2 bases, 3 GEMs in place of Cs (SEQ ID NO: 20) (sense UGUGGAAUAGUACUUACUGCAAU; antisense AUUGCAGUAAGUACUAUUCCACAGG; three gemcitabines replace cytidines in sense strand, positions not given here)
- efficacy (inhibition of cell viability / cell killing) at 30 nM [3]: 83-97%
- pIC50 [3]: ~8.52

Compound: SLP49-6: CHK1 siRNA, SS shortened by first 2 bases, containing 2 Gems (SEQ ID NO: 21) (sense UGUGGAAUAGUACUUACUGCAAUCC; antisense AUUGCAGUAAGUACUAUUCCACAGG; sense strand contains two gemcitabines, positions not given here, further chemistry not given here)
- efficacy (inhibition of cell viability / cell killing) at 30 nM [3]: 83-97%
- pIC50 [3]: ~8.52
